Source: the supplement of paper PMC10307832

Legend:
Test in all cases: relative viability (nuclei count vs DMSO), 5 days (fraction); higher = more cells survive
EPLC-272H = system: EPLC-272H
Method in brief: (§1)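 Nuclei were stained with Hoechst during a one-step fixation (final 0.05% Triton X-100, 1% formaldehyde, 1 ug/ml Hoechst) carried out 5 days after dosing, then counted on 4× images. The cells, lung cancer lines in 1536-well plates, had been dosed by pin tool the day after seeding with one drug alone or a fixed anchor-drug dose plus five library-drug doses (not always all listed) in √10 steps. Relative viability is the nuclei count in treated wells divided by that in vehicle wells, and each value is the median of duplicate plates.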

NCI-H2405 = system: NCI-H2405
Method in brief: as §1

NCI-H2009 = system: NCI-H2009
Method in brief: as §1

HCC-44 = system: HCC-44
Method in brief: as §1

NCI-H3122 = system: NCI-H3122
Method in brief: as §1

NCI-H2228 = system: NCI-H2228
Method in brief: as §1

NCI-H2085 = system: NCI-H2085
Method in brief: as §1

NCI-H2347 = system: NCI-H2347
Method in brief: as §1

LCLC-103H = system: LCLC-103H
Method in brief: as §1

PC-14 = system: PC-14
Method in brief: as §1

HCC-827 = system: HCC-827
Method in brief: as §1

COR-L23 = system: COR-L23
Method in brief: as §1

SW 1573 = system: SW 1573
Method in brief: as §1

NCI-H1355 = system: NCI-H1355
Method in brief: as §1

NCI-H1734 = system: NCI-H1734
Method in brief: as §1

NCI-H2023 = system: NCI-H2023
Method in brief: as §1

HCC-15 = system: HCC-15
Method in brief: as §1

ChaGo-K-1 = system: ChaGo-K-1
Method in brief: as §1

HCC-366 = system: HCC-366
Method in brief: as §1

ABC-1 = system: ABC-1
Method in brief: as §1

Cc1cn(-c2cc(NC(=O)c3ccc(C)c(Nc4nccc(-c5cccnc5)n4)c3)cc(C(F)(F)F)c2)cn1 [Nilotinib] + CC(C)C[C@H](NC(=O)[C@H](Cc1ccccc1)NC(=O)c1cnccn1)B(O)O [Bortezomib] (partner 0.002 µM)
relative viability (EPLC-272H; first compound 0.001 µM): 1.06 | relative viability (EPLC-272H; first compound 0.003162 µM): 1.21 | relative viability (EPLC-272H; first compound 0.01 µM): 0.863 | relative viability (EPLC-272H; first compound 0.03162 µM): 0.72 | relative viability (EPLC-272H; first compound 0.1 µM): 0.429 | relative viability (NCI-H2405; first compound 0.001 µM): 0.995 | relative viability (NCI-H2405; first compound 0.01 µM): 1.07 | relative viability (NCI-H2405; first compound 0.03162 µM): 0.762 | relative viability (NCI-H2405; first compound 0.1 µM): 0.553 | relative viability (NCI-H2009; first compound 0.001 µM): 0.937 | relative viability (NCI-H2009; first compound 0.003162 µM): 1.14 | relative viability (NCI-H2009; first compound 0.01 µM): 1.16 | relative viability (NCI-H2009; first compound 0.03162 µM): 1.06 | relative viability (NCI-H2009; first compound 0.1 µM): 0.218 | relative viability (HCC-44; first compound 0.001 µM): 0.885 | relative viability (HCC-44; first compound 0.003162 µM): 0.968 | relative viability (HCC-44; first compound 0.01 µM): 0.853 | relative viability (HCC-44; first compound 0.03162 µM): 0.871 | relative viability (HCC-44; first compound 0.1 µM): 0.873 | relative viability (NCI-H3122; first compound 0.003162 µM): 1.05 | relative viability (NCI-H3122; first compound 0.03162 µM): 1.03 | relative viability (NCI-H3122; first compound 0.1 µM): 0.962 | relative viability (NCI-H2228; first compound 0.001 µM): 1.09 | relative viability (NCI-H2228; first compound 0.003162 µM): 1.23 | relative viability (NCI-H2228; first compound 0.01 µM): 1.21 | relative viability (NCI-H2228; first compound 0.03162 µM): 0.641 | relative viability (NCI-H2228; first compound 0.1 µM): 0.422 | relative viability (NCI-H2085; first compound 0.001 µM): 1.11 | relative viability (NCI-H2085; first compound 0.003162 µM): 1.11 | relative viability (NCI-H2085; first compound 0.01 µM): 1.27 | relative viability (NCI-H2085; first compound 0.03162 µM): 0.816 | relative viability (NCI-H2085; first compound 0.1 µM): 0.725 | relative viability (NCI-H2347; first compound 0.001 µM): 0.8 | relative viability (NCI-H2347; first compound 0.003162 µM): 1.08 | relative viability (NCI-H2347; first compound 0.01 µM): 1.17 | relative viability (NCI-H2347; first compound 0.03162 µM): 0.702 | relative viability (NCI-H2347; first compound 0.1 µM): 0.865 | relative viability (LCLC-103H; first compound 0.001 µM): 1.08 | relative viability (LCLC-103H; first compound 0.003162 µM): 1.29 | relative viability (LCLC-103H; first compound 0.03162 µM): 1.15 | relative viability (LCLC-103H; first compound 0.1 µM): 0.909 | relative viability (PC-14; first compound 0.003162 µM): 1.05 | relative viability (PC-14; first compound 0.01 µM): 1.02 | relative viability (PC-14; first compound 0.03162 µM): 0.797 | relative viability (PC-14; first compound 0.1 µM): 0.867 | relative viability (HCC-827; first compound 0.003162 µM): 1.19 | relative viability (HCC-827; first compound 0.01 µM): 1.08 | relative viability (HCC-827; first compound 0.03162 µM): 1.07 | relative viability (HCC-827; first compound 0.1 µM): 1.06 | relative viability (COR-L23; first compound 0.001 µM): 0.726 | relative viability (COR-L23; first compound 0.003162 µM): 1.24 | relative viability (COR-L23; first compound 0.01 µM): 1.22 | relative viability (COR-L23; first compound 0.03162 µM): 0.858 | relative viability (COR-L23; first compound 0.1 µM): 0.907 | relative viability (SW 1573; first compound 0.001 µM): 1.02 | relative viability (SW 1573; first compound 0.003162 µM): 1.4 | relative viability (SW 1573; first compound 0.01 µM): 1.54 | relative viability (SW 1573; first compound 0.03162 µM): 0.796 | relative viability (SW 1573; first compound 0.1 µM): 1.09 | relative viability (NCI-H1355; first compound 0.001 µM): 1.09 | relative viability (NCI-H1355; first compound 0.003162 µM): 1.52 | relative viability (NCI-H1355; first compound 0.01 µM): 1.28 | relative viability (NCI-H1355; first compound 0.03162 µM): 1.15 | relative viability (NCI-H1355; first compound 0.1 µM): 0.639 | relative viability (NCI-H1734; first compound 0.001 µM): 0.877 | relative viability (NCI-H1734; first compound 0.003162 µM): 0.948 | relative viability (NCI-H1734; first compound 0.01 µM): 1.01 | relative viability (NCI-H1734; first compound 0.03162 µM): 0.558 | relative viability (NCI-H1734; first compound 0.1 µM): 0.6 | relative viability (NCI-H2023; first compound 0.001 µM): 1 | relative viability (NCI-H2023; first compound 0.003162 µM): 0.691 | relative viability (NCI-H2023; first compound 0.01 µM): 1.16 | relative viability (NCI-H2023; first compound 0.03162 µM): 0.925 | relative viability (NCI-H2023; first compound 0.1 µM): 0.206 | relative viability (HCC-15; first compound 0.001 µM): 0.92 | relative viability (HCC-15; first compound 0.003162 µM): 1.41 | relative viability (HCC-15; first compound 0.01 µM): 1.33 | relative viability (HCC-15; first compound 0.03162 µM): 0.855 | relative viability (HCC-15; first compound 0.1 µM): 0.629 | relative viability (ChaGo-K-1; first compound 0.001 µM): 1.44 | relative viability (ChaGo-K-1; first compound 0.003162 µM): 1.05 | relative viability (ChaGo-K-1; first compound 0.01 µM): 1.14 | relative viability (ChaGo-K-1; first compound 0.03162 µM): 0.639 | relative viability (ChaGo-K-1; first compound 0.1 µM): 0.898 | relative viability (HCC-366; first compound 0.001 µM): 0.88 | relative viability (HCC-366; first compound 0.003162 µM): 1.74 | relative viability (HCC-366; first compound 0.01 µM): 1.35 | relative viability (HCC-366; first compound 0.03162 µM): 0.692 | relative viability (HCC-366; first compound 0.1 µM): 0.844 | relative viability (ABC-1; first compound 0.001 µM): 0.291 | relative viability (ABC-1; first compound 0.003162 µM): 0.275 | relative viability (ABC-1; first compound 0.01 µM): 0.23 | relative viability (ABC-1; first compound 0.03162 µM): 0.28
